This is an account of results in US8575214B2, “MGlu 2/3 agonists” (Eli Lilly and Company, priority 2012, dated 2013).

One data set addresses T1, human mGlu2 receptor (Homo sapiens, UniProt Q14416).
T1 construct: expressed in transfected cells; host or cells: AV-12 cells (Syrian hamster fibroblasts), co-transfected with rat EAAT1 and Galpha15
The data set can be described thus: Human mGlu2 agonist FLIPR assay. To be noted: AV-12 cells expressing human mGlu2, EAAT1 and Gα15; relative EC50; ±5.9 SEM, n=3; read-out: EC50 in the hmGlu2 FLIPR assay. Format: cell-based. An excerpt:
(§1) AV-12 cell lines, derived from Syrian Hamster fibroblasts and stably expressing the human mGlu2 or mGlu3 receptor and co-transfected with the rat glutamate transporter EAAT 1 (Excitatory Amino Acid Transporter 1) and the Gα15 subunit, are used for these studies. The expression of Gα15 allows Gi-coupled receptors to signal through the phospholipase C pathway, resulting in the ability to measure receptor activation by a fluorometric calcium response assay. […] Intracellular calcium levels are monitored before and after the addition of compounds using a Fluorometric Imaging Plate Reader (FLIPR, Molecular Devices). […] Results are analyzed using Prism v4.03 (GraphPad Software). […] After taking an initial 5-sec fluorescent read on the FLIPR instrument, a compound of the invention is added to the cell plate (50 μL per well). […] The compound effect is measured as maximal minus minimal peak heights in relative fluorescent units (RFUs) corrected for basal fluorescence measured in the absence of glutamate. […] Agonist effects are quantified as percent stimulation induced by compound alone relative to the maximal glutamate response. All data are calculated as relative EC50 values using a four-parameter logistic curve fitting program (ActivityBase v5.3.1.22).

For data set [1], the system named is male, Sprague-Dawley rats. The data set can be described thus: Reversal of phencyclidine (PCP)-induced hyperlocomotor activity in rats. The format is in vivo, rat. From the text:
Motor activity is monitored by placing individual male, Sprague-Dawley (Harlan, Indianapolis, Ind.) rats in transparent, plastic shoe-box cages of the dimensions 45×25×20 cm, with 1 cm depth of wood chips as bedding, and a metal grill on top of the cage. Motor monitors (Kinder Scientific) consist of a rectangular rack of 12 photobeams arranged in an 8×4 formation, (or a high density grouping of 22 in a 15×7 pattern) at a height of 5 cm, with a second rack (for measuring rearing behaviors) at a height of 15 cm. The shoe box cage is placed inside of these racks, with the racks on a 3 foot high tabletop in an isolated room. A compound of the invention (active) is dosed (intraperitoneal route) within a range of 0.3-10 mg/kg, 30 minutes prior to a 5 mg/kg challenge dose of phencyclidine (PCP). A compound of the invention (prodrug) is orally dosed within a range of 0.3-30 mg/kg, in overnight fasted rats, 4 hours prior to a 5 mg/kg challenge dose of PCP. On the test day, rats are placed in the test cage and allowed to acclimate for 30 minutes prior to PCP challenge; rats are monitored for an additional 60 minutes following PCP administration.
Data analysis and ED50 calculations are conducted using GraphPad Prism (San Diego, Calif. USA). Power analyses have determined that 8-10 rats per group are needed to have appropriate statistical power for detecting treatment differences (power=0.8). A one-way analysis of variance (ANOVA) with a post-hoc Dunnett's multiple comparison test is conducted on the total 60 minute locomotor activity. ED50 calculations are performed using non-linear regression curve fitting on percent reversal transformed data for each dose.

For the next data set, the system named is male Sprague-Dawley rats. The data set can be described thus: Reversal of persistent pain induced by formalin injection. Format: in vivo. To be noted: ip, dosed 1 hour prior to intraplantar formalin, rat.
Another data set concerns the target T2, human mGlu3 receptor (Homo sapiens, UniProt Q14832).
T2 construct: expressed in transfected cells; host or cells: AV-12 cells (Syrian hamster fibroblasts), co-transfected with rat EAAT1 and Galpha15
The data set can be described thus: Human mGlu3 agonist FLIPR assay. Format: cell-based. To be noted: AV-12 cells expressing human mGlu3, EAAT1 and Gα15; relative EC50; ±52.5 SEM, n=8; read-out: EC50 in the hmGlu3 FLIPR assay.
Description: as §1

The next data set deals with Male Fischer F-344 rats. Nature of the data set: Attenuation of stress-induced hyperthermia in rats. To be noted: rat, 1-hr pretreatment, relative to vehicle response. The format is in vivo. An excerpt:
In many anxiety disorders, hyperthermia occurs as part of the pathology and is considered a symptom of the disease. Compounds which attenuate stress-induced hyperthermia in animals are believed to be useful in treating anxiety disorders in humans. Generalized anxiety disorder and post traumatic stress disorder are among the disorders that may be treated with such compounds. The conventional and minimally-invasive method for analyzing stress-induced hyperthermia is by measuring body temperature, and stress-induced increases in body temperature, via rectal thermometer. Male Fischer F-344 rats (Harlan, Indianapolis, Ind., USA) weighing between 275-350 g are tested. All animals are individually-housed with food and automated water available ad libitum, and maintained on a 12 h light/dark cycle (lights on at 06:00). Animals are fasted for approximately 12-18 hours before the experiment, which is conducted during the light phase. Rats are dosed intraperitoneal (IP) in a dose volume of 1 mL/kg with compounds of the invention in the range of 0.3, 1, 3, and 10, mg/kg. […]
After the pretreatment period, rats are taken individually to a brightly lit adjacent room where baseline body temperatures are determined by insertion of a rectal probe lubricated with mineral oil. Body temperature is assessed using a […] […] Ten minutes later a second body temperature measurement is recorded (T2). […]

The conditions of data set [2]: 1 h, 10 µM, pH 7.4.
Description: Frozen human duodenum intestinal homogenates (1:2 tissue:buffer ratio using 100 mM Tris Phosphate buffer, pH 7.4) are obtained from Celsius In Vitro Technologies (Baltimore, Md.) that were both phenylmethylsulphonylfluoride (PMSF) and EDTA free.
All original tissue collections are performed at 4° C. and immediately frozen at −70° C. Human intestinal homogenates are thawed and diluted to a final protein concentration of 0.5 mg/mL in 100 mM PBS buffer, pH 7.4 immediately prior to the incubations.
Incubations are conducted in 96-well plates and all prodrugs are run in duplicate on each day. Stock prodrug solutions are prepared in water at a concentration of 1 mM. A 200 μL aliquot of 0.5 mg/mL intestinal homogenate and 196 μL of 100 mM PBS buffer are placed in a 96-well plate in a 37° C. water bath. Using a 96-well pipettor, 4 μL of the 1 mM prodrug solution is transferred into the homogenate. Immediately after addition of the prodrug (time zero) and after 1 hour incubation, 50 μL samples of the incubation mixture are removed using an automated disposable simultaneous 96 well pipettor and added directly to 200 μL of methanol quench solution containing 100 ng/mL of Internal Standard. The samples are then centrifuged at 3500 rpm for 5 minutes at 10° C. The supernatant (200 μL) is transferred to a final 96 well PCR plate and sealed for analysis by LC/MS/MS.
Concentrations of hydrolyzed active metabolite in the incubation mixtures are determined using LC/MS/MS detection on a Sciex API 4000 quadrapole mass spectrometer with Analyst version 1.4.2, TurbolonSpray, positive ionization, and Selected Reaction Monitoring (SRM). […]
Averages and standard deviations are calculated using Microsoft® Office Excel® 2007. Amount of hydrolysis is determined as a molar percentage of active metabolite formed relative to prodrug concentration added.
For another data set, the target named is T3, hPepT1 (Homo sapiens, UniProt P46059).
T3 construct: expressed in transfected cells; host or cells: HeLa cells (ATCC), transient transfection with PepT1 DNA using FuGene6
T3 sequence (P46059 1-708): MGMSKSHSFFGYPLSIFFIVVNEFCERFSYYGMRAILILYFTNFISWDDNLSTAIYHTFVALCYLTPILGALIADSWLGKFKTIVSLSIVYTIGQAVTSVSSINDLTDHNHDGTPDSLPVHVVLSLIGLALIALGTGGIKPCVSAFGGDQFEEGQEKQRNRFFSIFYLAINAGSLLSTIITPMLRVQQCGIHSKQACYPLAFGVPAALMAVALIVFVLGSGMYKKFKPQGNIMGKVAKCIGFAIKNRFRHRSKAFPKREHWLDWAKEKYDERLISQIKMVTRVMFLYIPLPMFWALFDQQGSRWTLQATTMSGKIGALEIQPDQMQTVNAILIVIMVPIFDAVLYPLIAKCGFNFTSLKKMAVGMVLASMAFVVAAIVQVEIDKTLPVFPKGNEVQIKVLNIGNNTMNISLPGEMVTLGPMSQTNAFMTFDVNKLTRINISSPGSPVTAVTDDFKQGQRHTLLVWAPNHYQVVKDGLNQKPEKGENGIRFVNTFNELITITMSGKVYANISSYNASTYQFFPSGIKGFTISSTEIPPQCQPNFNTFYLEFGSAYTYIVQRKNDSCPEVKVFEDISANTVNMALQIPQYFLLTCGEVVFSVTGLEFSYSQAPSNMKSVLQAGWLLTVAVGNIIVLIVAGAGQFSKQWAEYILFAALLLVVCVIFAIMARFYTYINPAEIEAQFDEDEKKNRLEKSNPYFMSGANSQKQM
Nature of the data set: In vitro PepT1 GlySar inhibition screen and IC50 determination. The format is cell-based. To be noted: PepT1 transiently transfected HeLa cells. The method, then: HeLa cells, […], (American Type Culture Collection) are grown in Hyclone Medium (Invitrogen, Cat# SH30243) containing 10% fetal bovine serum (FBS), 0.1 mM non essential amino acids (NEAA), and 100 units/mL penicillin with 100 μg/mL streptomycin at 37° C. in a 5% CO2 humidified atmosphere. The cell line is used for up to 40 passages and then discarded. Frozen cells in 1 ml vials are thawed in water bath for 1-2 minutes and added to 5 mL of cell medium at 37° C. Each of the T-flasks is provided with 8.5 mL of the fresh medium and 1.5 mL of the cell stock. Cells are passaged twice during a week. This is achieved by rinsing the flasks with 10 mL of phosphate buffered saline-ethylene diaminetetra acetic acid (PBS-EDTA), adding 2 mL of trypsin for 2-5 minutes, to detach the cells, and adding 8 mL of fresh medium to inhibit further activity of trypsin. Each new flask receives a combination of 8.5 mL of fresh medium and 1.5 mL of cell stock, in order to obtain 1:6 cell dilution. Cells are incubated at 37° C., until ready for the uptake study.
Cells that are 70-80% confluent in the T-flasks are plated 1 day prior to the transfection procedure. The flask with the cell stock is treated with PBS-EDTA and trypsin to detach the cells, and transfection medium is used from this point. Transfection medium consists of Dulbecco's Modified Eagle Medium (DMEM)+NEAA. To each well, 0.5 mL of the cell mixture is added (1.3×10^5 is the desired cell concentration) and the cells are incubated at 37° C. overnight. Twenty four hours before the assay, cells are transfected with PEPT1. Transfection mixture is prepared by mixing 600 μL of serum free transfection medium, 18 μL of FuGene6 (Roche Diagnostics), and 11 μg of the PepT1 DNA. The transfection reagent-DNA complex is incubated for 20 minutes and 24 μL of the reagent-DNA complex is added to each well.
J. Pharm. Exper Ther. 310:437-445). […] Uptake media consists of 140 mM NaCl, 5.4 mM KCl, 1.8 mM CaCl2, 0.8 mM MgSO4, 5 mM Glucose, 25 mM tris(hydroxymethyl)aminomethane buffer (TRIS). The solution is then brought to pH 6.0 using 2-(N-morpholino)ethanesulfonic acid. The incubation volume is 500 μL and is performed at room temperature for 3 minutes. To stop the uptake at the conclusion of the incubation time, the uptake media is aspirated off of the cell monolayer and 500 μL of ice cold PBS added to the well. The cells are washed 3 times with 500 μL of room temperature PBS without Ca^+2 and Mg^+2. The cells are then lysed with 300 μL of 1% Triton X100 H2O solution. […] A no inhibitor control is established and the percent inhibition of each prodrug is calculated with respect to this control.
The incubation and sampling procedures are exactly the same as the PepT1 screen described above.

T2 sequence (Q14832 23-879): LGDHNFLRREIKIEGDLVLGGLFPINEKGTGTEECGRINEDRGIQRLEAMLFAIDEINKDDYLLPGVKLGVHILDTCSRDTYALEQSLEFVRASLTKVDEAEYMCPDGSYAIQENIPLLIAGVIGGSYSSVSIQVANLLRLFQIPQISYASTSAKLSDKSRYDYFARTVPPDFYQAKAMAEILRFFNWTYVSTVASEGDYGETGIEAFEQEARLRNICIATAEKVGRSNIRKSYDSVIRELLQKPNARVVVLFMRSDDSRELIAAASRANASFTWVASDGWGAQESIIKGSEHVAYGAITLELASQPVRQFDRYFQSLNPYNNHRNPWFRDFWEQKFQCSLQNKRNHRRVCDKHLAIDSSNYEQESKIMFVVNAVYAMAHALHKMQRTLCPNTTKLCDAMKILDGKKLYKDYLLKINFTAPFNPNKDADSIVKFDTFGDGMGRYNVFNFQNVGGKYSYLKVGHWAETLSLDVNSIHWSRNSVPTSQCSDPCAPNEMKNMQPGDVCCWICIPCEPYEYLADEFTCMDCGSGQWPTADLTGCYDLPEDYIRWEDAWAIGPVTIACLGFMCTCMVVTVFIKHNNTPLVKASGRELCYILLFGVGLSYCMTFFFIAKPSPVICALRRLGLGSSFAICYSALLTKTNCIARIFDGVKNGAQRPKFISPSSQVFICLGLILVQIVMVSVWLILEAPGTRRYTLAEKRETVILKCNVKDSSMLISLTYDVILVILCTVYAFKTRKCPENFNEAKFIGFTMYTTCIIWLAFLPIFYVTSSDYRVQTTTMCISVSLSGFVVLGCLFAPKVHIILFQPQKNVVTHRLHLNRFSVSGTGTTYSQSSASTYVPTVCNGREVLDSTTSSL
T1 sequence (Q14416 19-872): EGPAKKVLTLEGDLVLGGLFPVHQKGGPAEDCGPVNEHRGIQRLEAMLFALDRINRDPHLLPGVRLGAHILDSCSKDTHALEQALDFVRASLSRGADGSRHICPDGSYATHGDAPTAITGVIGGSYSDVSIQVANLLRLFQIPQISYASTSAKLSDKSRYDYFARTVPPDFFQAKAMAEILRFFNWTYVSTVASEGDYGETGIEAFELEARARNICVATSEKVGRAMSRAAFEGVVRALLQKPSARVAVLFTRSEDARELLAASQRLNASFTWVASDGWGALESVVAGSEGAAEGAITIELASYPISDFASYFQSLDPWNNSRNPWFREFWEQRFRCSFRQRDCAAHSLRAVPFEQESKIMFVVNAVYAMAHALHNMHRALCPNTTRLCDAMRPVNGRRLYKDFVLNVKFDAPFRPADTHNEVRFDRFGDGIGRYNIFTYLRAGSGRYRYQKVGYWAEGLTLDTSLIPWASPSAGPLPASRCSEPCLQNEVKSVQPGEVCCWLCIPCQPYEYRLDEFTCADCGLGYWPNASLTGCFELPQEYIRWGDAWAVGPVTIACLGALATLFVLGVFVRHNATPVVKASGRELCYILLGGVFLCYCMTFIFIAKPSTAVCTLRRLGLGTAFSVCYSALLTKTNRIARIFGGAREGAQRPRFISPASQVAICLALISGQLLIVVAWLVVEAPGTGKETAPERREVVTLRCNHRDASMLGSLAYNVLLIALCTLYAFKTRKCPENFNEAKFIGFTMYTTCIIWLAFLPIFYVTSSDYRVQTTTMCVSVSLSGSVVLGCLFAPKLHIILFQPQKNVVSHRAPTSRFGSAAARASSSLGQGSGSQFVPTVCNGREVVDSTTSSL

The EC50 is the concentration that produces a half-maximal response. In general, ED50 refers to the midpoint of the dose-response relation. Turning to `N[C@@]1(C(=O)O)CC2(CC2)[C@H]2[C@H](C(=O)O)[C@H]21` [Example 2, (1S,2S,5R,6S)-2-Aminospiro[bicyclo[3.1.0]hexane-4,1′-cyclopropane]-2,6-dicarboxylic acid], the EC50 at human mGlu2 receptor amounted to 0.039 µM; on human mGlu3 receptor, 0.285 µM. The ED50 came out at 1.46 mg/kg in data set [1] (0.5 h, i.p., 30 minutes prior to 5 mg/kg PCP, rat) and 0.7 mg/kg with male Sprague-Dawley rats. Further, the “T35 (dose producing a 35% reduction in stress-induced hyperthermic response)” value with Male Fischer F-344 rats came out at 0.57 mg/kg.
As usually defined, the IC50 is the concentration at which inhibition is half-maximal. Usually inhibition stands for the change of the read-out against control, counted positive when it falls. For `C[C@H](N)C(=O)N[C@@]1(C(=O)O)CC2(CC2)[C@H]2[C@H](C(=O)O)[C@H]21.Cl` [Example 5, (1S,2S,5R,6S)-2-[[(2S)-2-Aminopropanoyl]amino]spiro[bicyclo[3.1.0]hexane-4,1′-cyclopropane]-2,6-dicarboxylic acid hydrochloride], the “human intestinal hydrolysis relative to Internal Prodrug A” value in data set [2] was 36%. Also, the ED50 in data set [1] (Rattus norvegicus, p.o., overnight fasted rats, 4 hours prior to 5 mg/kg PCP) was 2.95 mg/kg. Also, in the data set with Male Fischer F-344 rats, the “T35 (dose producing a 35% reduction in stress-induced hyperthermic response)” value came out at 6.4 mg/kg. On hPepT1 (0.0625 to 25 mM, read-out: hPepT1 [3H]Gly-Sar uptake inhibition IC50), the IC50 was found to be 1980 µM. Further, at hPepT1 (pH 6.0, 3 minutes, read-out: hPepT1 [3H]Gly-Sar uptake inhibition at 5 mM), the inhibition at 5000 µM is 89%.
